{"source": "patent US20170268027A1", "about": "“METHOD FOR SYNTHESIS OF FATTY ACIDS” (priority 2014, published 2017)", "key": {"Y. lipolytica": {"system": "Y. lipolytica", "test": "preliminary dose studies of cerulenin on growth of Y. lipolytica", "type": "cell-based, Yarrowia lipolytica", "details": "doses tested 1 to 25 mgcerulenin·gx^−1"}, "Yarrowia lipolytica W29": {"system": "Yarrowia lipolytica W29", "test": "Culture B: fed-batch culture of Y. lipolytica W29 under nitrogen limitation with cerulenin pulse (growth, fatty acid profile)", "type": "cell-based", "set-up": "Length of the carbon chain: unit not given here"}, "[1]": {"system": "Yarrowia lipolytica JMY3501", "test": "Culture D: fed-batch culture of Y. lipolytica JMY3501 with cerulenin pulse (fatty acid profile)", "type": "cell-based"}, "Candida lypolytica": {"system": "Candida lypolytica", "details": "cited from earlier work"}, "[2]": {"details": "between injection and 3 h after injection"}, "[3]": {"details": "−2 h (before the pulse, baseline)"}}, "note": "Read-outs that look alike come from different tables or passages of the source.", "data": [{"smiles": "C/C=C/C/C=C/CCC(=O)[C@H]1O[C@H]1C(N)=O", "note": "[cerulenin]", "values": [{"measurement": "dose that completely inhibits growth", "setting": "Y. lipolytica", "value": 15, "unit": "mgcerulenin·gx^−1"}, {"measurement": "Degree of unsaturation", "setting": "Yarrowia lipolytica W29; 0 h (time of the pulse)", "value": 0.95}, {"measurement": "Length of the carbon chain", "setting": "Yarrowia lipolytica W29; 0 h (time of the pulse)", "value": 16.98}, {"measurement": "time of appearance of short-chain fatty acids after the pulse", "setting": "Yarrowia lipolytica W29; 7 mgcerulenin·gx^−1", "value": 15, "unit": "min"}, {"measurement": "culture time after which the effect of partial inhibition of elongation kinetics disappeared", "setting": "Yarrowia lipolytica W29; 7 mgcerulenin·gx^−1 pulse", "value": 9, "unit": "h"}, {"measurement": "increase of mass content of palmitic acid (C16:0) relative to before the pulse", "setting": "Yarrowia lipolytica W29; 3 h after pulse", "value": 0.014, "unit": "gAG·gx^−1"}, {"measurement": "increase of mass content of palmitoleic acid (C16:1) relative to before the pulse", "setting": "Yarrowia lipolytica W29; 3 h after pulse", "value": 0.023, "unit": "gAG·gx^−1"}, {"measurement": "Degree of unsaturation", "setting": "Yarrowia lipolytica W29; +15 min. after the pulse", "value": 0.92}, {"measurement": "Length of the carbon chain", "setting": "Yarrowia lipolytica W29; +15 min. after the pulse", "value": 16.83}, {"measurement": "Degree of unsaturation", "setting": "Yarrowia lipolytica W29; +1 h after the pulse", "value": 0.73}, {"measurement": "Length of the carbon chain", "setting": "Yarrowia lipolytica W29; +1 h after the pulse", "value": 16.3}, {"measurement": "Degree of unsaturation", "setting": "Yarrowia lipolytica W29; +3 h after the pulse", "value": 0.75}, {"measurement": "Length of the carbon chain", "setting": "Yarrowia lipolytica W29; +3 h after the pulse", "value": 15.3}, {"measurement": "accumulation of short-chain fatty acids", "setting": "Yarrowia lipolytica W29; after 3 h of culture after the pulse of 7 mgcerulenin·gx^−1", "value": 24.5, "unit": "%"}, {"measurement": "mass fraction of the fatty acid C18:3", "setting": "Yarrowia lipolytica W29; after the pulse", "value": 6, "unit": "%"}, {"measurement": "mass fraction F4,8 multiplied by", "setting": "Yarrowia lipolytica W29; at 3 h", "value": 70}, {"measurement": "mass fraction F9,12 multiplied by", "setting": "Yarrowia lipolytica W29; at 3 h", "value": 28}, {"measurement": "mass fraction F13,15 multiplied by", "setting": "Yarrowia lipolytica W29; at 3 h", "value": 15}, {"measurement": "factor of multiplication of the specific rate of synthesis of short-chain or medium-chain fatty acid", "setting": "Yarrowia lipolytica W29; before vs 3 h after the pulse", "value": 14}, {"measurement": "average degree of unsaturation of neo-synthesised fatty acids", "setting": "Yarrowia lipolytica W29; [2]", "value": 0.6}, {"measurement": "average number of carbon atoms of neo-synthesised fatty acids", "setting": "Yarrowia lipolytica W29; [2]", "value": 12.74, "unit": "carbon atoms"}, {"measurement": "effect on the growth dynamic of the yeast", "setting": "Yarrowia lipolytica W29; dose 7 μgcerulenin·mgx^−1, nitrogen limitation", "value": "no effect"}, {"measurement": "total fatty acids accumulated", "setting": "Yarrowia lipolytica W29; during the 10 h following the cerulenin pulse", "value": 3, "unit": "%"}, {"measurement": "variation of the growth rate", "setting": "Yarrowia lipolytica W29; during the 10 h following the first injection, 7 mgcerulenin·gx^−1", "value": "less than 5%"}, {"measurement": "specific speed of production of fatty acid", "setting": "Yarrowia lipolytica W29; following the addition of cerulenin (0.004 before)", "value": 0.0017, "unit": "gAG·gx·h^−1"}, {"measurement": "variation of mass content of fatty acids C4:0-C8:0 relative to before the pulse", "setting": "Yarrowia lipolytica W29; in 3 h", "value": 0.05, "unit": "gAG·gx^−1"}, {"measurement": "variation of mass content of fatty acids C9:0-C12:0 relative to before the pulse", "setting": "Yarrowia lipolytica W29; in 3 h", "value": 0.07, "unit": "gAG·gx^−1"}, {"measurement": "variation of mass content of fatty acids C13:0-C15:0 relative to before the pulse", "setting": "Yarrowia lipolytica W29; in 3 h", "value": 0.07, "unit": "gAG·gx^−1"}, {"measurement": "Degree of unsaturation", "setting": "Yarrowia lipolytica W29; [3]", "value": 0.97}, {"measurement": "Length of the carbon chain", "setting": "Yarrowia lipolytica W29; [3]", "value": 16.97}, {"measurement": "effect on accumulation of short-chain fatty acids", "setting": "[1]; 0.25 mgcerulenin·gx^−1, lipid accumulation phase", "value": "increase the accumulation of short-chain fatty acids"}, {"measurement": "C12 content in the fatty acid composition", "setting": "[1]; after pulse of 0.25 mgcerulenin·gx^−1 (4% before)", "value": 7, "unit": "%"}, {"measurement": "C14 content in the fatty acid composition", "setting": "[1]; after pulse of 0.25 mgcerulenin·gx^−1 (7% before)", "value": 14, "unit": "%"}, {"measurement": "effect on growth", "setting": "Candida lypolytica; substrate containing n-tetradecane to n-octadecane", "value": "without exerting any effect"}, {"measurement": "effect on growth", "setting": "Candida lypolytica; substrate containing n-undecane or n-dodecane", "value": "completely blocks the growth"}]}]}
